From publication PMC11882969 (Nature Communications, 2025)

Target: CB1 (rCB1) (Rattus norvegicus, UniProt P20272)
Assay: Radioligand competition binding, [3H]-CP-55,940, rat brain membranes
Conditions: for pKi [95% CI]: rCB1; for Ki: read-out: Ki [95% CI], rCB1, [3H]-CP-55,940

Chain of CB1 (rCB1) (P20272 whole entry): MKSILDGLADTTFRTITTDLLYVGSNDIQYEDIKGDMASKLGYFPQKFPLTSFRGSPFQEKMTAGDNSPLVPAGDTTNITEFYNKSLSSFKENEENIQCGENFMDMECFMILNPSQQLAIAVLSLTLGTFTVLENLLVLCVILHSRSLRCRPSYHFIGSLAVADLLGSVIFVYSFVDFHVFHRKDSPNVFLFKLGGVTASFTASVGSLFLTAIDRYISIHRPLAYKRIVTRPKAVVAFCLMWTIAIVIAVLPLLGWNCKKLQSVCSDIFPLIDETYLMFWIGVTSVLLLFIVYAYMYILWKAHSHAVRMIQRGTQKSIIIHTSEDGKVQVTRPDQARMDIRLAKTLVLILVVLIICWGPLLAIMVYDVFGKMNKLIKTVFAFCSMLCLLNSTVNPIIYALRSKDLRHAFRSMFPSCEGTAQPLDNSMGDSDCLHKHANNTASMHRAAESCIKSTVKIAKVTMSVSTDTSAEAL

| Structure (SMILES) | pKi [95% CI] | Ki | fold improvement in CB1R affinity (vs parent hit or analog without the change) |
| --- | --- | --- | --- |
| COC(=O)C(c1ccco1)N(C)C(=O)c1cc(C)n(-c2cccc(C(F)(F)F)c2)n1 (centres unmarked) [‘6425] | 6.0 [5.8 – 6.2] | 934 nM |  |
| Cc1cc(C(=O)NC(C)(c2ccccc2)c2ccco2)nn1-c1cccc(C(F)(F)F)c1 (centres unmarked) [‘5806] | 8.1 [7.7 – 8.5] |  | ~15 fold |
| CC(=O)C(C)(NC(=O)c1cc(C)n(-c2cccc(C(F)(F)F)c2)n1)c1cccs1 (centres unmarked) [‘4156] | 7.9 [7.5 – 8.2] | 13.5 nM |  |
| COC(=O)[C@@H](c1cccs1)N(C)C(=O)c1cc(C)n(-c2cccc(C(F)(F)F)c2)n1 [‘6000] | 5.8 [5.7 – 6.0] | 1460 nM |  |
